Experimental data taken from the SangsterLogP compilation.

assay: method code SF-AS, from Ploquin, J.; Sparfel, L.; LeBaut, G.; Floc'h, R.; Welin, L.; Petit, Y.; Henry, N. (1974). Pyrophthalones. III. Properties of gamma-pyrophthalones. Eur J Med Chem, 9(5)526-533.; details: pH 7.4

Question: For `CC=CN1C=CC(=C2C(=O)c3ccccc3C2=O)C=C1C`, which logD is on record?
Answer: The logD was 2.6.

Question: Which logD does the source give for `C=CCN1C=CC(=C2C(=O)c3ccccc3C2=O)C=C1` here?
Answer: Its logD is 2.46.

Question: With `CC(C)N1C=CC(=C2C(=O)c3ccccc3C2=O)C=C1` as the compound, how does the logD read?
Answer: The logD was 2.44.

Question: With `O=C1C(=C2C=CN(CCc3ccccc3)C=C2)C(=O)c2ccccc21` as the compound, how does the logD read?
Answer: The logD was 3.3.

Question: Which logD does the source give for `O=C1C(=C2C=CN(CC(O)CO)C=C2)C(=O)c2ccccc21` (centres undefined) here?
Answer: Its logD is 1.36.

Question: For `C=CCN1C=CC(=C2C(=O)c3ccccc3C2=O)C=C1C`, which logD is on record?
Answer: Its logD is 2.54.

Question: For `O=C1C(=C2C=CN(Cc3ccccc3)C=C2)C(=O)c2ccccc21`, which logD is on record?
Answer: The logD was 2.99.

Question: Which logD does the source give for `COCCN1C=CC(=C2C(=O)c3ccccc3C2=O)C=C1` here?
Answer: Its logD is 2.11.

Question: Which logD does the source give for `CCCCN1C=CC(=C2C(=O)c3ccccc3C2=O)C=C1` here?
Answer: Its logD is 3.05.

Question: For `CC(O)CN1C=CC(=C2C(=O)c3ccccc3C2=O)C=C1` (centres undefined), which logD is on record?
Answer: Its logD is 1.75.

Question: Which logD does the source give for `CC1=CC(=C2C(=O)c3ccccc3C2=O)C=CN1CC(C)C` here?
Answer: Its logD is 2.82.

Question: Which logD does the source give for `CCCN1C=CC(=C2C(=O)c3ccccc3C2=O)C=C1C` here?
Answer: Its logD is 2.63.

Question: Which logD does the source give for `CC1=CC(=C2C(=O)c3ccccc3C2=O)C=CN1C(C)C` here?
Answer: Its logD is 2.33.

Question: Which logD does the source give for `CC=CN1C=CC(=C2C(=O)c3ccccc3C2=O)C=C1` here?
Answer: Its logD is 2.75.

Question: For `CC(C)CCCCCN1C=CC(=C2C(=O)c3ccccc3C2=O)C=C1`, which logD is on record?
Answer: Its logD is 2.98.

Question: Which logD does the source give for `CC1=CC(=C2C(=O)c3ccccc3C2=O)C=C(C)N1C` here?
Answer: The logD was 2.5.

Question: Which logD does the source give for `CC1=CC(=C2C(=O)c3ccccc3C2=O)C=CN1C` here?
Answer: Its logD is 1.9.

Question: Which logD does the source give for `CCCCCCCCCN1C=CC(=C2C(=O)c3ccccc3C2=O)C=C1` here?
Answer: The logD was 3.45.

Question: For `CCN1C=CC(=C2C(=O)c3ccccc3C2=O)C=C1C`, which logD is on record?
Answer: The logD was 2.34.

Question: Which logD does the source give for `CCCN1C=CC(=C2C(=O)c3ccccc3C2=O)C=C1` here?
Answer: Its logD is 2.64.

Question: For `CN1C=CC(=C2C(=O)c3ccccc3C2=O)C=C1`, which logD is on record?
Answer: The logD was 1.6.

Question: Which logD does the source give for `CCCCCN1C=CC(=C2C(=O)c3ccccc3C2=O)C=C1` here?
Answer: Its logD is 3.27.

Question: For `CCN1C=CC(=C2C(=O)c3ccccc3C2=O)C=C1`, which logD is on record?
Answer: The logD was 2.12.

Question: With `CC(C)CN1C=CC(=C2C(=O)c3ccccc3C2=O)C=C1` as the compound, how does the logD read?
Answer: Its logD is 2.76.
